Measurements from US20120107323A1, “KINASE PROTEIN BINDING INHIBITORS” (University of Florida, priority 2009, published 2012).

Experiments:
Assay type in all cases: cell-based
[1] = tested on: KYSE70 esophageal cancer cells; test: Cell viability (MTT), KYSE70
Method: (§1) Cell viability (MTT) and CFSE Proliferation assay: Cells were plated in 96-well plates and let adhere overnight. After cell treatment, cell viability was measured by 3-(4,5-dimethylthiazol-2-yl)-2,5-diphenyl tetrazolium bromide (MTT) assay (CellTiter 96® Aqueous, Promega, Madison, Wis.).
(§2) Cell viability and detachment assays: After cells were treated with siRNA transfection, cell viability was measured by 3-(4,5-dimethylthiazol2-yl)-2,5-diphenyl tetrazolium bromide (MTT) assay (CellTiter 96® AQueous, Promega, Madison, Wis.). Briefly, 20 μl of the tetrazolium compound was added to each well. The cells were then incubated at 37° C. for 1 h. The plate was read at 490 nm with a plate reader to determine the viability. In detachment assays, detached and attached cells were harvested separately and counted in a hemocytometer. The percentage of detachment was calculated by dividing the number of detached cells by the total number of cells. Apoptosis assays: After treatment, attached and detached cells were collected, counted and prepared for terminal uridine deoxynucleotidyl transferase (TUNEL) assay by utilizing an APO-BRDU kit (BD Pharmingen, San Diego, Calif.) according to the manufacturer's instructions. Stained cells were analyzed with a fluorescence-activated cell sorting-Calibur flow cytometer (BD Biosciences). Calculation of the percentage of apoptotic cells in the sample was completed with CellQuest software (BD Biosciences). Apoptotic cells were also analyzed by Hoechst staining. Hoechst 33342 (1 µg/rill) was added to the fixed cells and the specimens were mounted on glass coverslips. The slides were viewed under the Zeiss microscope for apoptotic nuclei. The percent of apoptotic cells was calculated as the ratio of apoptotic cells to total number of cells.
In addition, the effect of INT2-31 on cell viability of esophageal, pancreatic and breast cancer cell lines was analyzed and the IC50 value for each cell line was determined, as shown in Table 1. […] Similar to melanoma results, INT2-31 inhibits viability more in cancer cells compared to normal cells. Sensitivity of the cells to INT2-31 varied and directly correlated to the FAK and IGF-1R expression level of the cells.

[2] = tested on: Miapaca-2 pancreatic cancer cells; test: Cell viability (MTT), Miapaca-2
Method: as §1
as §2, with “Calculation of the percentage of apoptotic cells in the sample was completed with CellQuest software (BD Biosciences).” left out, “Hoechst 33342 (1 µg/rill) was added to the fixed cells and the specimens were mounted on glass coverslips. The slides were viewed under the Zeiss microscope for apoptotic nuclei. The percent of apoptotic cells was calculated as the ratio of apoptotic cells to total number of cells.” left out

[3] = tested on: MCF10A cells; test: Cell viability (MTT), MCF10A; settings: Homo sapiens, MCF-10A, 72 hours, read-out: IC50 of INT2-31, cell viability
Method: as §1
as §2, with “Calculation of the percentage of apoptotic cells in the sample was completed with CellQuest software (BD Biosciences).” left out, “Hoechst 33342 (1 µg/rill) was added to the fixed cells and the specimens were mounted on glass coverslips. The slides were viewed under the Zeiss microscope for apoptotic nuclei. The percent of apoptotic cells was calculated as the ratio of apoptotic cells to total number of cells.” left out

[4] = biological target: T1, FAK and IGF-1R (Homo sapiens, UniProt Q05397); test: Coimmunoprecipitation of FAK and IGF-1R in A375 melanoma cells; settings: average IC50, A375 cells, immunoprecipitation with antibody against FAK; read-out: IC50, disruption of FAK/IGF-1R binding
T1 construct: endogenous in cells; host or cells: C8161 (A2) and A375 (A3) melanoma cells
Text: Computational Docking The crystal structures of the N-terminal domain of FAK (PDB code 2AL6) (22) and the kinase domain of IGF-1R(PDB 1P40A) (23) were utilized for in silico molecular modeling of their interaction as previously described. The three-dimensional coordinates of compound NSC344553 (INT2-31), obtained from the database of the National Cancer Institute, Developmental Therapeutics Program (NCI/DTP), were docked onto the predicted interface of the amino-terminus of FAK (amino acids 127-243) with the intracytoplasmic portion of IGF-1R (21). […] 100 orientations were created for NSC344553 in the target site and were scored using the computer program grid-based scoring function. […] The intermolecular energies for all configurations of NSC 344553 in binding to FAK-NT2 were calculated as the sum of electrostatic and van der Waals energies. These energy terms were evaluated as correlation functions, which were computed efficiently with Fast Fourier Transforms. […] Bound proteins were boiled in 6× Laemmli buffer and analyzed by SDS-PAGE and Western blotting. […] The intensity of the bands in the western blots was measured with scion image analysis software program. […]

T1 sequence (Q05397 2-1052 limits assumed): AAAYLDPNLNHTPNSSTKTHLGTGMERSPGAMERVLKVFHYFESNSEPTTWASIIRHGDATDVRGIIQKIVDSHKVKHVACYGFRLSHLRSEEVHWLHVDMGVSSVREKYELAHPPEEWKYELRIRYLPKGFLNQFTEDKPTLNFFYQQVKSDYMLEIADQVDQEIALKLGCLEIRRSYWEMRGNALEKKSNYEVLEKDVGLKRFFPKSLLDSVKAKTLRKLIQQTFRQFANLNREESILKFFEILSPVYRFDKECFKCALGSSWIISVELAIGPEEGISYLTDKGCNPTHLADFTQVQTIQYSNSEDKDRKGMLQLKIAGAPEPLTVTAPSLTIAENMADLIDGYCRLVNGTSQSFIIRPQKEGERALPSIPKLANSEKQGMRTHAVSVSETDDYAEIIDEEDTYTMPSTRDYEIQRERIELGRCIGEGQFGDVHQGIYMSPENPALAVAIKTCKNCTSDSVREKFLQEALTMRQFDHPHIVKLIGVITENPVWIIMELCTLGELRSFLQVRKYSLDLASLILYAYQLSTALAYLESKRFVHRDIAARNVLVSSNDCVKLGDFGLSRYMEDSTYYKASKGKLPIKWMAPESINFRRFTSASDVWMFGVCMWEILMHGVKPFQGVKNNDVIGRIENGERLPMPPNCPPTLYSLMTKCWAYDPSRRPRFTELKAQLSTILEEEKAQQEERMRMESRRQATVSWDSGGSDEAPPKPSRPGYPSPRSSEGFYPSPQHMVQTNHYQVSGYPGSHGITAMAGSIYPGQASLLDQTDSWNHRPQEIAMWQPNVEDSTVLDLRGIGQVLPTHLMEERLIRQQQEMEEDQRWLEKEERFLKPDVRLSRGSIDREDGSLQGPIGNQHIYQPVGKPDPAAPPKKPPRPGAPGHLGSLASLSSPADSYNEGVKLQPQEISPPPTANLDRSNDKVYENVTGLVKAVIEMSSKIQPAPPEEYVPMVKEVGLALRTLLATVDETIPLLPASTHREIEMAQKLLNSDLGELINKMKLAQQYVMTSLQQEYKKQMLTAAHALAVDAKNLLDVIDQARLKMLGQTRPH

CSc1ncnc2c1ccn2C1O[C@H](COP(=O)(O)O)[C@@H](O)[C@H]1O (stereo partly drawn) [INT2-31, 4-(Methylthio)-7-(5-O-phosphono-D-ribofuranosyl)-{7H-Pyrrolo[2,3-d]pyrimidine}]
IC50 ([1]; Homo sapiens, KYSE-70, KYSE70, 72 hours, read-out: IC50 of INT2-31, cell viability): 4.6 µM | effect of combination with 5-FU on cell viability ([1]; KYSE 70, 0.5 and 1 μM INT2-31): synergistic effects | sensitivity of cells to single-agent treatment ([1]; KYSE 70, 72 hours): sensitive | IC50 ([2]; Homo sapiens, MIA PaCa-2, Miapaca-2, 72 hours, read-out: IC50 of INT2-31, cell viability): 4.73 µM | cell viability (in words) ([2]; MiaPaCa-2, 72 hours): inhibits the cell viability | IC50 [3]: 100 µM | IC50 [4]: 3.17 µM
